Data as given in paper PMC11641365, “Evaluation of In Vitro Biological Activity of Flavanone/Chromanone Derivatives: Molecular Analysis of Anticancer Mechanisms in Colorectal Cancer” (International Journal of Molecular Sciences, 2024).

Experiments:
Assay type in all cases: cell-based, human
[1] = system: Caco-2; test: Cell cycle analysis via flow cytometry (propidium iodide); conditions: compound at IC50, 24 h, vs control
Experimental: The most commonly used fluorescent dyes for cell cycle analysis are fluorochromes that penetrate the cell membrane into the interior of permeabilized cells and bind stoichiometrically to DNA via intercalation, e.g., DAPI, propidium iodide (PI). The analysis is performed on cells fixed in ethanol. In this work, the cell cycle analysis was performed using the method described by Darzynkiewicz and Juan.
Cells (10 × 10^3) were seeded in 35 mm dishes and cultured in the medium for 24 h to attain the logarithmic growth phase. […] Subsequently, cells were trypsinized and centrifuged for 10 min at 400× g at 4 °C. The cell suspension in 100 μL of PBS was fixed in 1 mL of 70% ethanol (−20 °C) and stored at this temperature until analysis. Immediately before analysis, the ethanol-fixed cell suspension was centrifuged at 10,000 rpm for 10 min at 4 °C. The pellet was washed with cold (4 °C) PBS to remove residual ethanol, and the cell suspension was centrifuged again under the same conditions. A volume of 300 μL of PBS containing 4 mg/mL propidium iodide (final concentration 75 μM) and 1 mg/mL RNAse A (final concentration 20 μg/mL) was added to the cell pellet and incubated for at least 30 min at 37 °C in the dark. Stained cells were analyzed using a flow cytometer (Becton Dickinson, Franklin Lakes, NJ, USA), counting 10,000 cells in each sample. Data were analyzed using FlowJo 10.10 software (FlowJo, Williamson Way Ashland, OR, USA).

[2] = system: HCT 116; test: Superoxide anion level, DHE probe; conditions: compound at IC50, 24 h, vs control
Experimental: (§1) Superoxide anion (O2^•−) levels were quantified using a microplate spectrofluorometric assay with dihydroethidium (DHE) (Life Technologies, Carlsbad, CA, USA). DHE is a well-established fluorogenic probe for intracellular superoxide detection. […] The reaction between superoxide and DHE produces a highly specific red fluorescent product, 2-hydroxyethidium (2-OH-E ^+).
(§2) Cells were seeded in black 96-well fluorometric microplates at a density of 10 × 10^3 cells/mL. […] Following compound incubation, the medium was removed, and the cell monolayers were washed twice with HBSS (140 mM NaCl, 5 mM KCl, 0.8 mM MgCl2, 1.8 mM CaCl2, 1 mM Na2HPO4, 10 mM HEPES, and 1% glucose). A volume of 50 µL of DHE solution in HBSS (final concentration 5 μM) was added to each well, and the cells were incubated for 30 min in the dark at 37 °C. After incubation with the DHE, fluorescence measurements were conducted using a Perkin-Elmer LS-5B spectrofluorometer (Waltham, MA, USA) at the following excitation and fluorescence emission wavelengths: λex = 498 nm/λem = 582 nm. The fluorescence intensity of control cells was arbitrarily assigned a value of 100%. The results were expressed as percentages of control, calculated by comparing the fluorescence intensity ratio of the test samples to controls (100%). The fluorescence of samples was denoted as Δf in relation to the control.

[3] = system: SW620; test: Superoxide anion level, DHE probe; conditions: compound at IC50, 24 h, vs control
Experimental: as §1, §2

[4] = system: Caco-2; test: Superoxide anion level, DHE probe; conditions: compound at IC50, 24 h, vs control
Experimental: as §1, §2

[5] = system: HT-29; test: Reactive nitrogen species level, DAF-FM probe; conditions: compound at IC50, 24 h
Experimental: (§3) Diaminofluorescein-FM diacetate (DAF-FM diacetate, Invitrogen, Carlsbad, CA, USA), a cell-permeable fluorescent probe, is widely utilized for the detection and quantification of reactive nitrogen species (RNS), primarily nitric oxide (NO). […] Upon interaction with NO, however, it undergoes a chemical transformation resulting in the formation of a highly fluorescent benzotriazole derivative with excitation and emission maxima at 495 and 515 nm, respectively.
as §2, with “[…] Fluorescence” for “A volume of 50 µL of DHE solution in HBSS (final concentration 5 μM) was added to each well, and the cells were incubated for 30 min in the dark at 37 °C. After incubation with the DHE, fluorescence”, “(MA,” for “(Waltham, MA,”, “495” for “498”, “515” for “582”

[6] = system: SW620; test: Reactive nitrogen species level, DAF-FM probe; conditions: compound at IC50, 24 h
Experimental: as §3
as §2, with “[…] Fluorescence” for “A volume of 50 µL of DHE solution in HBSS (final concentration 5 μM) was added to each well, and the cells were incubated for 30 min in the dark at 37 °C. After incubation with the DHE, fluorescence”, “(MA,” for “(Waltham, MA,”, “495” for “498”, “515” for “582”

[7] = system: Caco-2; test: Intracellular GSH level, monochlorobimane (MCB) probe; conditions: compound at IC50, 24 h, vs control
Experimental: The spectrofluorimetric method with monochlorobimane (MCB; Sigma-Aldrich; St. Louis, MO, USA) was used to determine GSH. Monochlorobimane reacts with glutathione in a reaction catalyzed by cellular glutathione S-transferase. The reaction produces a fluorescent bimane-glutathione conjugate (GSH-MCB). A major advantage of MCB is its ability to penetrate the cell membrane, which is why it is used as a probe to determine the amount of GSH in living cells.
Cells were seeded in black 96-well fluorometric microplates at a density of 10 × 10^3 cells/mL. […] Following compound incubation, the medium was removed, and the cell monolayers were washed twice with HBSS (140 mM NaCl, 5 mM KCl, 0.8 mM MgCl2, 1.8 mM CaCl2, 1 mM Na2HPO4, 10 mM HEPES, and 1% glucose). A solution of MCB at a final concentration of 40 μM was added to each well and incubated in a CO2 cell culture incubator at 37 °C for 20 min. A 40 mM MCB stock solution was prepared by dissolving 9 mg of the reagent in 1 mL of absolute ethanol. Fluorescence was measured using a Perkin-Elmer LS-5B spectrofluorometer (Waltham, MA, USA) at the following excitation and fluorescence emission wavelengths: λex = 380 nm/λem = 470 nm. After incubation with MCB, the cells were lysed with 50 μL of lysis buffer (10 mM TRIS-HCl; pH 8 containing 0.1% Triton X-100). In order to normalize the number of cells in individual samples, the amount of DNA was determined by adding 50 μL of ethidium bromide (EB, final concentration 0.2 mM) to each well after measuring the MCB fluorescence and measuring the EB fluorescence at an excitation wavelength of λex = 530 nm and an emission wavelength of λem = 590 nm. The results obtained using the standard curve were converted to nM of GSH.

SMILES: O=C1/C(=C/c2ccccc2)COc2ccccc21 [Compound 1]
- Increase in the G2/M phase cell percentage [1]: 30%
- Increase in O2−• (superoxide anion) levels [2]: 10–15%
- Increase in O2−• (superoxide anion) levels [3]: 10–15%
- Increase in O2−• (superoxide anion) levels [4]: 30%
- Change in RNS levels [5]: significantly increased RNS levels
- Change in RNS levels [6]: significantly increased RNS levels
- Decrease in GSH levels [7]: 25–30%
